# Test results: patent US5914242A, “Method for diminishing myocardial infarction using protein phosphatase inhibitors” (priority 1997, dated 1999)
# Tests used:
# [1] = system: divalent cation-independent serine/threonine protein phosphatase activity; test: Divalent cation-independent phosphatase activity in dilute whole cell homogenate of rabbit ventricle; assay type: biochemical; settings: crude whole cell homogenate, [32P]-phosphohistone
# Experimental: FIG. 5: Effect of fostriecin on the divalent cation-independent phosphatase activity contained in a dilute, whole cell homogenate of rabbit ventricle. Dilute homogenates of rabbit ventricle biopsies were assayed in the presence of the indicated amount of fostriecin. […] Assays were conducted in a total volume of 80 μl, and the indicated amount of fostriecin was added to the assay 10 minutes prior to initiation of the reaction by the addition of substrate. Each point represents the mean ± SE (n>6).
# Determination of protein phosphatase activity: Protein phosphatase activity against phosphohistone was determined by the quantification of liberated [^32 P] from phosphohistone according to previously established methods (see Honkanen et al., J. Biol. Chem. 265:19401-04 (1990); Honkanen et al., Mol. Pharmacol. 40:577-83 (1991); and Critz and Honkanen, Neuroprotocols 6:78-83 (1995)). Assays (80 μl final volume) were conducted in 50 mM Tris-buffer (pH 7.4) containing 0.5 mM DTT, 4 mM EDTA, and phosphoprotein (2 μM PO4). […] [^32 P]Phosphate liberated by the enzyme was then extracted as a phosphomolybdate complex and measured according to the methods of Killilea et al., Arch. […] Aliquots of the upper phase (100 μl) were removed for counting, and radioactivity was quantified with a scintillation counter. […]
# [2] = system: PP2B; test: Effect on PP2B; assay type: biochemical
structure (smiles),measurement,setting,value
CC(O)(/C=C/C1CC=CC(=O)O1)C(CC(O)\C=C/C=C\C=C\CO)OP(=O)(O)O (centres unmarked) [fostriecin],inhibition of phosphatase activity in rabbit heart ventricle homogenate,[1],inhibits
same,effect on PP2B,[2],no effect
